This test in a line: The binding affinities (Ki) of compounds were determined using fluorescence polarization assays (FPA) that measure their ability to competitively displace a Bad-derived peptide from Bcl-xL. Compound efficacy (EC50) in a cellular context was evaluated by testing their ability to reverse the protection from cytokine w. A general note: Polarisation of emitted light reports the rotation of a fluorescent probe.

Molecules are shown by their SMILES. Several values for one entry are separate records, joined by “and”; a condition that tells them apart may be missing. Identical values can stand only once.

Here are results for 24 compounds from BindingDB's records for doi:10.1021/jm061152t (Abbott Laboratories, 2007).

Usually EC50 stands for the concentration at which the effect is half-maximal. The low end stands for greater potency, the high end for weaker potency.

Consider `CN(C)CC[C@H](CSc1ccccc1)Nc1ccc(S(=O)(=O)NC(=O)c2ccc(N3CCN(C(=O)c4ccccc4)CC3)cc2)cc1[N+](=O)[O-]` [4-(4-benzoylpiperazin-1-yl)-N-[(4-{[(2R)-4-(dimethylamino)-1-(phenylsulfanyl)butan-2-yl]amino}-3-nitrobenzene)sulfonyl]benzamide], for which the EC50 was > 50000 nM. The same compound came in with an EC50 (pH 7.4) of 14600 nM.
Turning to `CN(C)CC[C@H](CSc1ccccc1)Nc1ccc(S(=O)(=O)NC(=O)c2ccc(N3CCN(Cc4ccccc4)CC3)cc2)cc1[N+](=O)[O-]` [4-(4-benzylpiperazin-1-yl)-N-[(4-{[(2R)-4-(dimethylamino)-1-(phenylsulfanyl)butan-2-yl]amino}-3-nitrobenzene)sulfonyl]benzamide], a half-maximal effect (EC50) was put at 1700 nM. In addition, for the setting “pH 7.4”, the EC50 was 1100 nM.
As for `CN(C)CC[C@H](CSc1ccccc1)Nc1ccc(S(=O)(=O)NC(=O)c2ccc(N3CCN(Cc4ccccc4-c4ccccc4Cl)CC3)cc2)cc1[N+](=O)[O-]` [4-(4-{[2-(2-chlorophenyl)phenyl]methyl}piperazin-1-yl)-N-[(4-{[(2R)-4-(dimethylamino)-1-(phenylsulfanyl)butan-2-yl]amino}-3-nitrobenzene)sulfonyl]benzamide], the EC50 was 56 nM and 27 nM.
The same measure, in the same setting: the result for `CN(C)CC[C@H](CSc1ccccc1)Nc1ccc(S(=O)(=O)NC(=O)c2ccc(N3CCN(Cc4ccccc4-c4cccc(Cl)c4)CC3)cc2)cc1[N+](=O)[O-]` [4-(4-{[2-(3-chlorophenyl)phenyl]methyl}piperazin-1-yl)-N-[(4-{[(2R)-4-(dimethylamino)-1-(phenylsulfanyl)butan-2-yl]amino}-3-nitrobenzene)sulfonyl]benzamide] reads 180 nM and 33 nM.
The same measure, in the same setting: the result for `CN(C)CC[C@H](CSc1ccccc1)Nc1ccc(S(=O)(=O)NC(=O)c2ccc(N3CCN(Cc4ccccc4NC4CCCCC4)CC3)cc2)cc1[N+](=O)[O-]` [4-(4-{[2-(cyclohexylamino)phenyl]methyl}piperazin-1-yl)-N-[(4-{[(2R)-4-(dimethylamino)-1-(phenylsulfanyl)butan-2-yl]amino}-3-nitrobenzene)sulfonyl]benzamide] reads 660 nM and 340 nM.
In the case of `CN(C)CC[C@H](CSc1ccccc1)Nc1ccc(S(=O)(=O)NC(=O)c2ccc(N3CCN(C(=O)Nc4ccccc4)CC3)cc2)cc1[N+](=O)[O-]` [4-(4-{[(4-{[(2R)-4-(dimethylamino)-1-(phenylsulfanyl)butan-2-yl]amino}-3-nitrobenzene)sulfonyl]carbamoyl}phenyl)-N-phenylpiperazine-1-carboxamide], the half-maximal effective concentration (EC50) was > 50000 nM. For the same compound, the half-maximal effective concentration (EC50) (pH 7.4) is > 50000 nM.
In the case of `CN(C)CC[C@H](CSc1ccccc1)Nc1ccc(S(=O)(=O)NC(=O)c2ccc(N3CCN(Cc4ccccc4C4CCCCC4)CC3)cc2)cc1[N+](=O)[O-]` [4-{4-[(2-cyclohexylphenyl)methyl]piperazin-1-yl}-N-[(4-{[(2R)-4-(dimethylamino)-1-(phenylsulfanyl)butan-2-yl]amino}-3-nitrobenzene)sulfonyl]benzamide], the EC50 was 340 nM and 120 nM.
As for `CC1OC2(CCN(c3ccc(C(=O)NS(=O)(=O)c4ccc(N[C@H](CCN(C)C)CSc5ccccc5)c([N+](=O)[O-])c4)cc3)CC2)N(Cc2ccccc2)C1=O` (stereo partly drawn) [4-{4-benzyl-2-methyl-3-oxo-1-oxa-4,8-diazaspiro[4.5]decan-8-yl}-N-[(4-{[(2R)-4-(dimethylamino)-1-(phenylsulfanyl)butan-2-yl]amino}-3-nitrobenzene)sulfonyl]benzamide], the EC50 was > 50000 nM. Besides, the half-maximal effective concentration (EC50) (pH 7.4) is > 20000 nM.
As to `CN(C)CC[C@H](CSc1ccccc1)Nc1ccc(S(=O)(=O)NC(=O)c2ccc(N3CCC(C)(C)CC3)cc2)cc1[N+](=O)[O-]` [N-[(4-{[(2R)-4-(dimethylamino)-1-(phenylsulfanyl)butan-2-yl]amino}-3-nitrobenzene)sulfonyl]-4-(4,4-dimethylpiperidin-1-yl)benzamide], the half-maximal effective concentration (EC50) was 2200 nM.
Same read-out and setting: the result for `COc1cccc(-c2ccccc2CN2CCN(c3ccc(C(=O)NS(=O)(=O)c4ccc(N[C@H](CCN(C)C)CSc5ccccc5)c([N+](=O)[O-])c4)cc3)CC2)c1` [N-[(4-{[(2R)-4-(dimethylamino)-1-(phenylsulfanyl)butan-2-yl]amino}-3-nitrobenzene)sulfonyl]-4-(4-{[2-(3-methoxyphenyl)phenyl]methyl}piperazin-1-yl)benzamide] reads 380 nM and 460 nM; that for `CN(C)CC[C@H](CSc1ccccc1)Nc1ccc(S(=O)(=O)NC(=O)c2ccc(N3CCN(Cc4ccccc4-c4ccc(F)cc4)CC3)cc2)cc1[N+](=O)[O-]` [N-[(4-{[(2R)-4-(dimethylamino)-1-(phenylsulfanyl)butan-2-yl]amino}-3-nitrobenzene)sulfonyl]-4-(4-{[2-(4-fluorophenyl)phenyl]methyl}piperazin-1-yl)benzamide], 130 nM and 27 nM; that for `COc1ccc(-c2ccccc2CN2CCN(c3ccc(C(=O)NS(=O)(=O)c4ccc(N[C@H](CCN(C)C)CSc5ccccc5)c([N+](=O)[O-])c4)cc3)CC2)cc1` [N-[(4-{[(2R)-4-(dimethylamino)-1-(phenylsulfanyl)butan-2-yl]amino}-3-nitrobenzene)sulfonyl]-4-(4-{[2-(4-methoxyphenyl)phenyl]methyl}piperazin-1-yl)benzamide], 30 nM and 25 nM.
Same read-out and setting: in the case of `CN(C)CC[C@H](CSc1ccccc1)Nc1ccc(S(=O)(=O)NC(=O)c2ccc(N3CCN(Cc4ccccc4-c4ccc(-c5ccccc5)cc4)CC3)cc2)cc1[N+](=O)[O-]` [N-[(4-{[(2R)-4-(dimethylamino)-1-(phenylsulfanyl)butan-2-yl]amino}-3-nitrobenzene)sulfonyl]-4-(4-{[2-(4-phenylphenyl)phenyl]methyl}piperazin-1-yl)benzamide] it was 22 nM and 68 nM; in that of `CSc1ccccc1CN1CCN(c2ccc(C(=O)NS(=O)(=O)c3ccc(N[C@H](CCN(C)C)CSc4ccccc4)c([N+](=O)[O-])c3)cc2)CC1` [N-[(4-{[(2R)-4-(dimethylamino)-1-(phenylsulfanyl)butan-2-yl]amino}-3-nitrobenzene)sulfonyl]-4-(4-{[2-(methylsulfanyl)phenyl]methyl}piperazin-1-yl)benzamide], 95 nM and 130 nM.
Take `CN(C)CC[C@H](CSc1ccccc1)Nc1ccc(S(=O)(=O)NC(=O)c2ccc(N3CCN(Cc4ccccc4N4CCOCC4)CC3)cc2)cc1[N+](=O)[O-]` [N-[(4-{[(2R)-4-(dimethylamino)-1-(phenylsulfanyl)butan-2-yl]amino}-3-nitrobenzene)sulfonyl]-4-(4-{[2-(morpholin-4-yl)phenyl]methyl}piperazin-1-yl)benzamide]: the EC50 was 430 nM and 460 nM.
Still for that read-out and setting: the result for `CN(C)CC[C@H](CSc1ccccc1)Nc1ccc(S(=O)(=O)NC(=O)c2ccc(N3CCN(Cc4ccccc4-c4cccnc4)CC3)cc2)cc1[N+](=O)[O-]` [N-[(4-{[(2R)-4-(dimethylamino)-1-(phenylsulfanyl)butan-2-yl]amino}-3-nitrobenzene)sulfonyl]-4-(4-{[2-(pyridin-3-yl)phenyl]methyl}piperazin-1-yl)benzamide] reads 800 nM and 820 nM; that for `CN(C)CC[C@H](CSc1ccccc1)Nc1ccc(S(=O)(=O)NC(=O)c2ccc(N3CCN(Cc4ccccc4C(F)(F)F)CC3)cc2)cc1[N+](=O)[O-]` [N-[(4-{[(2R)-4-(dimethylamino)-1-(phenylsulfanyl)butan-2-yl]amino}-3-nitrobenzene)sulfonyl]-4-(4-{[2-(trifluoromethyl)phenyl]methyl}piperazin-1-yl)benzamide], 390 nM and 130 nM; that for `CN(C)CC[C@H](CSc1ccccc1)Nc1ccc(S(=O)(=O)NC(=O)c2ccc(N3CCC(=Cc4ccccn4)CC3)cc2)cc1[N+](=O)[O-]` [N-[(4-{[(2R)-4-(dimethylamino)-1-(phenylsulfanyl)butan-2-yl]amino}-3-nitrobenzene)sulfonyl]-4-[4-(pyridin-2-ylmethylidene)piperidin-1-yl]benzamide], 550 nM and 1380 nM.
`CN(C)CC[C@H](CSc1ccccc1)Nc1ccc(S(=O)(=O)NC(=O)c2ccc(N3CCC(=Cc4cccnc4)CC3)cc2)cc1[N+](=O)[O-]` [N-[(4-{[(2R)-4-(dimethylamino)-1-(phenylsulfanyl)butan-2-yl]amino}-3-nitrobenzene)sulfonyl]-4-[4-(pyridin-3-ylmethylidene)piperidin-1-yl]benzamide]: the EC50 is 1900 nM and 5300 nM.
With `CN(C)CC[C@H](CSc1ccccc1)Nc1ccc(S(=O)(=O)NC(=O)c2ccc(N3CCN(Cc4ccccc4-c4ccc(C(F)(F)F)cc4)CC3)cc2)cc1[N+](=O)[O-]` [N-[(4-{[(2R)-4-(dimethylamino)-1-(phenylsulfanyl)butan-2-yl]amino}-3-nitrobenzene)sulfonyl]-4-[4-({2-[4-(trifluoromethyl)phenyl]phenyl}methyl)piperazin-1-yl]benzamide], the concentration for a half-maximal effect (EC50) is 40 nM and 13 nM.
Same read-out and setting: the result for `CN(C)CC[C@H](CSc1ccccc1)Nc1ccc(S(=O)(=O)NC(=O)c2ccc(N3CCN(Cc4ccccc4S(C)(=O)=O)CC3)cc2)cc1[N+](=O)[O-]` [N-[(4-{[(2R)-4-(dimethylamino)-1-(phenylsulfanyl)butan-2-yl]amino}-3-nitrobenzene)sulfonyl]-4-{4-[(2-methanesulfonylphenyl)methyl]piperazin-1-yl}benzamide] reads 5500 nM and 6800 nM; that for `COc1ccccc1CN1CCN(c2ccc(C(=O)NS(=O)(=O)c3ccc(N[C@H](CCN(C)C)CSc4ccccc4)c([N+](=O)[O-])c3)cc2)CC1` [N-[(4-{[(2R)-4-(dimethylamino)-1-(phenylsulfanyl)butan-2-yl]amino}-3-nitrobenzene)sulfonyl]-4-{4-[(2-methoxyphenyl)methyl]piperazin-1-yl}benzamide], 390 nM and 950 nM.
Same read-out and setting: in the case of `Cc1ccccc1CN1CCN(c2ccc(C(=O)NS(=O)(=O)c3ccc(N[C@H](CCN(C)C)CSc4ccccc4)c([N+](=O)[O-])c3)cc2)CC1` [N-[(4-{[(2R)-4-(dimethylamino)-1-(phenylsulfanyl)butan-2-yl]amino}-3-nitrobenzene)sulfonyl]-4-{4-[(2-methylphenyl)methyl]piperazin-1-yl}benzamide] it was 410 nM and 940 nM; in that of `CN(C)CC[C@H](CSc1ccccc1)Nc1ccc(S(=O)(=O)NC(=O)c2ccc(N3CCN(Cc4ccccc4-c4ccccc4)CC3)cc2)cc1[N+](=O)[O-]` [N-[(4-{[(2R)-4-(dimethylamino)-1-(phenylsulfanyl)butan-2-yl]amino}-3-nitrobenzene)sulfonyl]-4-{4-[(2-phenylphenyl)methyl]piperazin-1-yl}benzamide], 18 nM and 16 nM.
